Measured values as given in patent publication US12421270B2, “Oligosaccharide, preparation method therefor, composition thereof and use thereof” (YANTAI DONGCHENG BIOCHEMICALS CO., LTD, priority 2018, dated 2025).

Assays:
Format in all cases: biochemical
platelet-poor plasma [1] = experiment: TT assay (thrombin time), anticoagulant activity test; conditions: 37° C., fibrin formation time, last column of table
Procedure: (§1) Oligosaccharide compounds of the present application, J1 (a compound of formula J, in which Y=Na, q=1, R is azido, and ? is in β configuration), J2 (a compound of formula J, in which Y=Na, q=2, R is azido, and ? is in β configuration), J3 (a compound of formula J, in which Y=Na, q=3, R is azido, and ? is in β configuration), and J4 (a compound of formula J, in which Y=Na, q=4, R is azido, and ? is in β configuration) were assayed for anticoagulant activity, including activated partial thrombin time (APTT), prothrombin time (PT) and thrombin time (TT).
(§2) The whole experiment was carried out according to the instruction of the TT kit. Firstly, 20 ul of platelet-poor plasma and 5 ul of the solution to be tested (control or sample solution) were mixed into a test cup and incubated in preheating zone at 37° C. for 3 min. Then the test cup was moved to the test zone, and 50 ul of preheated TT reagent was added (preheating time is longer than 10 min, but not more than 30 min). At the same time, recording of fibrin formation time was immediately initiated, and when the experiment was completed, the fibrin formation time was read from the coagulation analyzer.
(§3) Results of the assays are as follows (data in the table represent the concentration required to double APTT/PT/TT): […]

platelet-poor plasma [2] = experiment: APTT assay (activated partial thrombin time), anticoagulant activity test; conditions: 37° C., fibrin formation time
Procedure: as §1
The whole experiment was carried out according to the instruction of the APTT kit. Firstly, 20 ul of platelet-poor plasma and 5 ul of the solution to be tested (control or sample solution) were mixed into a test cup and incubated in preheating zone at 37° C. for 3 min. Then 25 ul of APTT reagent was added to the mixed system, and then continued to incubate at 37° C. for 3 min. Next, the test cup was moved to the test zone, and 25 ul of calcium chloride solution preheated for 5 min was added. At the same time, recording of fibrin formation time was immediately initiated, and when the experiment was completed, the fibrin formation time was read from the coagulation analyzer.
as §3

platelet-poor plasma [3] = experiment: PT assay (prothrombin time), anticoagulant activity test; conditions: 37° C., fibrin formation time
Procedure: as §1
as §2, with “PT” for “TT”
as §3

“azido{(2,4-di-O-sulfo-α-L-fucosyl)-(1→3)-(β-D-glucopyranosyluronic acid)-(1→3)-(4,6-di-O-sulfo-2-deoxy-2-N-acetamino-β-D-galactopyranosyl)-(1→4)-[(2,4-di-O-sulfo-α-L-fucosyl)-(1→3)-(β-D-glucopyranosyluronic acid)-(1→3)-(4,6-di-O-sulfo-2-deoxy-2-N-acetamido-β-D-galactopyranosyl)]} decasodium salt [Compound J1]” was tested, and the “Concentration required to double TT” value (platelet-poor plasma [1]) was over 128 µg/mL, the “APTT (concentration required to double APTT)” value (platelet-poor plasma [2]) was 120.39 µg/mL and the “PT (concentration required to double PT)” value (platelet-poor plasma [3]) was over 128 µg/mL.
